From patent publication US20240208997A1, “CYCLIC BENZIMIDAZOLE DERIVATIVES AS CGAS INHIBITORS” (Boehringer Ingelheim International GmbH, priority 2022, published 2024)
Where two headings read alike, the source gives them in different places.

Tests used:
THP-1 = conditions: page 67 and 68, Table 3 of WO 2022/174012; read-out: cellular IC50-value (IFNβ ELISA stimulated with THP-1), group; cited from earlier work
[1] = tested on: IFN induction in virus-stimulated THP1 cells; assay: Human cGAS cell assay, virus-stimulated THP1-Dual cells (THP1(vir) IC50); type: cell-based
Excerpt: (§1) 6.2 Method: Human cGAS Cell Assay and cGAMP Stimulated Counter Cell Assay (THP1(vir) IC50 and THP1(cGAMP) IC50)
THP1-Dual™ cells (InvivoGen #thpd-nfis) expressing IRF dependent Lucia luciferase reporter were used as basis for both assays. For the detection of cellular cGAS activity cells were stimulated by a baculovirus (pFastbac-1, Invitrogen, no coding insert) infection that delivers the cGAS enzyme stimulating double-stranded DNA (measurement of THP1(vir) IC50).
(§2) Pathway activity was monitored by measuring the Lucia luciferase activity induced by either DNA stimulated cGAS enzyme activity (measurement of THP1(vir) IC50) or by cGAMP directly (measurement of THP1(cGAMP) IC50, counter assay).
(§3) Compounds were delivered in 10 mM DMSO solution, serially diluted and transferred to the 384 well assay plate (Greiner #781201) using an Echo acoustic dispenser. Typically, 8 concentrations were used with the highest concentration at 10 μM in the final assay volume followed by ^˜1:5 dilution steps. DMSO concentration was set to 1% in the final assay volume. The 384 well assay plate contained […] (column 1-22), and DMSO in column 23 and 24.
(§4) Cells, cultivated according to manufacturer conditions, were harvested by centrifugation at 300 g/10 min and were then resuspended and diluted to 1.66E5 cells/ml in fresh cell culture medium (RPMI 1640 (Gibco #A10491-01), 10% FCS (Gibco #10500), 1× GlutaMax (Gibco #35050-061), 1× Pen/Strep solution (Gibco #15140-122), 100 μg/ml Normocin (InvivoGen #ant-nr), 100 μg/ml Zeocin (InvivoGen #ant-zn), 10 μg/ml Blasticidin S (Life Technologies #A11139-03)). The baculovirus solution was then added 1:200 (have varied according to virus batch) to the cells (measurement of THP1(vir) IC50).
(§5) 30 μL of the cell/virus-mix were added to each well of the compound plate from column 1-23 via MultiDrop Combi dispenser (5000 cells/well). In column 24, 30 μl/5000 cells/well without virus were added as a low control.
(§6) The plates were then incubated for 18 h at 37° C. in a humidified incubator.
(§7) Following that, 15 μL of QuantiLuc detection reagent (InvivoGen #rep-qlcg5) were added to each well using a MultiDrop Combi. Measurement was done immediately after the addition using an EnVision reader (US-luminescence read-mode).
(§8) Data Evaluation and Calculation:
(§9) For data evaluation and calculation, the measurement of the low control was set as 0% control and the measurement of the high control was set as 100% control. The IC50 values were calculated using the standard 4 parameter logistic regression formula. Calculation: [y=(a−d)/(1+(x/c)^b)+d], a=low value, d=high value; x=conc M; c=IC50 M; b=slope

cGAS [2] = biological target: T1, cGAS (Homo sapiens, UniProt Q8N884); conditions: page 65, Table 2 of WO 2022/174012; read-out: enzymatic IC50-value, group; cited from earlier work
[3] = tested on: IFN induction in cGAMP-stimulated THP1 cells; assay: cGAMP stimulated counter cell assay in THP1-Dual cells (THP1(cGAMP) IC50); type: cell-based, human; conditions: Homo sapiens, read-out: THP1(cGAMP) IC50
Excerpt: as §1
For the counter assay, cells were stimulated by cGAMP (SigmaAldrich #SML1232) to activate the identical pathway independent and directly downstream of cGAS (measurement of THP1(cGAMP) IC50).
as §2, §3, §4, §5, §6, §7, §8, §9

[4] = tested on: IFN induction in cGAMP-stimulated THP1 cells; conditions: Table 4; compounds of PCT/EP2022/062480 and PCT/EP2022/062496 and their methyl ester prodrugs; cited from earlier work
[5] = tested on: IFN induction in dsDNA-stimulated human whole blood; conditions: Table 4; compounds of PCT/EP2022/062480 and PCT/EP2022/062496 and their methyl ester prodrugs; read-out: hWB IC50; cited from earlier work
[6] = tested on: IFN induction in virus-stimulated THP1 cells; conditions: Table 4; compounds of PCT/EP2022/062480 and PCT/EP2022/062496 and their methyl ester prodrugs; read-out: THP1(vir) IC50; cited from earlier work
cGAS [7] = biological target: T1, cGAS; parameters: HumancGAS (amino acid 1-522) with an N-terminal 6×-His-tag and SUMO-tag; 6xHis (N); SUMO (N); made in house; host or cells: E. coli BL21(DE3) pLysS; conditions: Table 4; compounds of PCT/EP2022/062480 and PCT/EP2022/062496 and their methyl ester prodrugs; read-out: hcGAS IC50; cited from earlier work
cGAS [8] = biological target: T1, cGAS; conditions: groups as on page 44/45 of WO 2020/142729; read-out: biochemical (in vitro) IC50-value, group; cited from earlier work
[9] = THP-1, Table 2, compounds of WO 2020/142729, read-out: THP1(vir) IC50
[10] = THP-1, Table 2, compounds of WO 2020/142729

T1 sequence (Q8N884 whole entry): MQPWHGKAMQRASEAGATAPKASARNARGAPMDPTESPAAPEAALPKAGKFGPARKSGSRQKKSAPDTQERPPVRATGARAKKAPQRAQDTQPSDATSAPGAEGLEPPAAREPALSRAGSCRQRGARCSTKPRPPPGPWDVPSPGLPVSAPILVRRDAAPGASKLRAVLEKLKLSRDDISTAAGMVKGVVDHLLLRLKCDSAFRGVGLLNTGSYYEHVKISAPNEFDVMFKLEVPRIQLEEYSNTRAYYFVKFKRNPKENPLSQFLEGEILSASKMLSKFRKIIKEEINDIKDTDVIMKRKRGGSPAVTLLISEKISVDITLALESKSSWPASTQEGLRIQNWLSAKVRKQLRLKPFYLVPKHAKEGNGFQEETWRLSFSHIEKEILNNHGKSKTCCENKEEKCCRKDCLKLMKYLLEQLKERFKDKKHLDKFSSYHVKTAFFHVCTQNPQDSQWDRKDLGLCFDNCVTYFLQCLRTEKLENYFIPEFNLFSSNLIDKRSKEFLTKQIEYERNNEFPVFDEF

Row | SMILES | IC50 [4] [nM] | IC50 [5] [nM] | IC50 [6] [nM] | also measured
1 | Cc1nc(N2C[C@@H](CC(=O)Nc3ccc(-c4ccccc4)cc3)C[C@H]2C(=O)O)c2oc3ccccc3c2n1 [Compound 5, reference compound] |  |  |  | IC50 (THP-1): < 1000 nM; IC50 ([1]; THP-1, Table 3, Compound No. 5 of WO 2022/174012, read-out: THP1(vir) IC50): > 10000 nM; IC50 (cGAS [2]): 50 to 100 nM; IC50 ([3]; THP-1, Table 3, Compound No. 5 of WO 2022/174012): > 10000 nM
2 | CO[C@]1(c2cc(Cl)cnc2O[C@H]2C[C@@H](C(=O)O)N(c3nc(C(F)F)nc4c3oc3ccccc34)C2)CC(C)(C)S(=O)(=O)C[C@@H]1C [Ex. 1.05 of PCT/ EP2022/062496] | 13200 | 135 | 44 | 
3 | C[C@@H]1N(c2cc(Br)cnc2OC2C[C@@H](C(=O)O)N(c3nc(C(F)(F)F)nc4c3oc3ccccc34)C2)CCOC12COC2 (some centres unmarked) [Ex. 1.10 of PCT/EP2022/062 480] | 16100 | 33 | 91 | IC50 (cGAS [7]): 5 nM
4 | C#Cc1cnc(O[C@H]2C[C@@H](C(=O)O)N(c3nc(C(F)(F)F)nc4c3oc3ccccc34)C2)c(N2CCOC3(COC3)[C@@H]2C)c1 [Ex. 1.12 of PCT/EP2022/062 480] | 11900 | 15 | 7 | 
5 | C[C@H]1CS(=O)(=O)CC[C@]1(F)c1cc(Cl)cnc1O[C@H]1C[C@@H](C(=O)O)N(c2nc(C(F)F)nc3c2oc2ccccc23)C1 [Ex. 1.13 of PCT/ EP2022/062496] | 22500 | 6 |  | 
6 | C#Cc1cnc(O[C@H]2C[C@@H](C(=O)O)N(c3nc(C(F)(F)F)nc4c3oc3ccccc34)C2)c([C@@]2(F)CCS(=O)(=O)C[C@@H]2C)c1 [Ex. 2.12 of PCT/ EP2022/062496] | 21800 | 8 |  | 
7 | COc1ncccc1-c1cnc(O[C@H]2C[C@@H](C(=O)O)N(c3nc(C(F)(F)F)nc4c3oc3ccccc34)C2)c(N2CCOC3(COC3)[C@@H]2C)c1 [Ex. 3.14 of PCT/EP2022/062 480] | 7830 | 26 | 10 | 
8 | C[C@@H]1N(c2cccnc2O[C@H]2C[C@@H](C(=O)O)N(c3nc(C(F)F)nc4c3oc3ccccc34)C2)CCOC12COC2 [Ex. 4.04 of PCT/EP2022/062 480] | > 16600 | 77 | 386 | 
9 | Cc1nc(N2CCC[C@H]2C(=O)O)c2oc3ccccc3c2n1 [Example 15, reference compound] |  |  |  | IC50 [1, 9]: > 17000 nM; IC50 [3, 10]: > 17000 nM
10 | Cc1nc(N2C[C@@H](Cc3nn[nH]n3)C[C@H]2C(=O)O)c2oc3ccccc3c2n1 [Example 25, reference compound] |  |  |  | IC50 (cGAS [8]): < 100 nM; IC50 [1, 9]: > 17000 nM; IC50 ([1]; THP-1, running text, read-out: THP1(vir) IC50): 17000 nM; IC50 [3, 10]: > 17000 nM
11 | Cc1nc(N2C[C@@H](CC(=O)Nc3ccncc3)C[C@H]2C(=O)O)c2oc3ccccc3c2n1 [Example 28, reference compound] |  |  |  | IC50 [1, 9]: > 32000 nM
12 | Cc1nc(N2C[C@@H](Nc3ccncc3)C[C@H]2C(=O)O)c2oc3ccccc3c2n1 [Example 38, reference compound] |  |  |  | IC50 [1, 9]: > 17000 nM; IC50 [3, 10]: > 17000 nM
13 | CC(C)(C(=O)N[C@H]1C[C@@H](C(=O)O)N(c2nc(C(F)(F)F)nc3c2oc2ccccc23)C1)c1cn[nH]c1 [Example 58, reference compound] |  |  |  | IC50 [1, 9]: 21000 nM
14 | COC(=O)[C@@H]1C[C@H](Oc2ncccc2N2CCOC3(COC3)[C@@H]2C)CN1c1nc(C(F)F)nc2c1oc1ccccc12 [P01 of PCT/EP2022/062 480] | 26100 | 1310 | 358 | IC50 (cGAS [7]): > 9960 nM
15 | C#Cc1cnc(O[C@H]2C[C@@H](C(=O)OC)N(c3nc(C(F)(F)F)nc4c3oc3ccccc34)C2)c([C@@]2(F)CCS(=O)(=O)C[C@@H]2C)c1 [P01 of PCT/EP2022/062 496] | > 16600 | 67 | 11 | 
16 | COC(=O)[C@@H]1C[C@H](Oc2ncc(Cl)cc2[C@@]2(F)CCS(=O)(=O)C[C@@H]2C)CN1c1nc(C(F)F)nc2c1oc1ccccc12 [P02 of PCT/ EP2022/062496] | > 16600 | 140 | 29 | IC50 (cGAS [7]): > 9950 nM
17 | COC(=O)[C@@H]1C[C@H](Oc2ncc(Br)cc2N2CCOC3(COC3)[C@@H]2C)CN1c1nc(C(F)(F)F)nc2c1oc1ccccc12 [P02 of PCT/EP2022/062 480] | 17100 | 5330 | 444 | IC50 (cGAS [7]): > 9950 nM
18 | COC(=O)[C@@H]1C[C@H](Oc2ncc(Cl)cc2[C@@]2(OC)CC(C)(C)S(=O)(=O)C[C@@H]2C)CN1c1nc(C(F)F)nc2c1oc1ccccc12 [P03 of PCT/ EP2022/062496] | 20600 | 1990 | 202 | 
19 | C#Cc1cnc(O[C@H]2C[C@@H](C(=O)OC)N(c3nc(C(F)(F)F)nc4c3oc3ccccc34)C2)c(N2CCOC3(COC3)[C@@H]2C)c1 [P03 of PCT/EP2022/062 480] | 22800 | 1090 | 188 | 
20 | COC(=O)[C@@H]1C[C@H](Oc2ncc(-c3cccnc3OC)cc2N2CCOC3(COC3)[C@@H]2C)CN1c1nc(C(F)(F)F)nc2c1oc1ccccc12 [P04 of PCT/EP2022/062 480] | > 16600 | 2750 | 67 | IC50 (cGAS [7]): > 9950 nM
